Among the data in US20240246920A1, “TRIAZOLE DERIVATIVES WITH ANTIFUNGAL ACTIVITY” (King's College London, priority 2020, published 2024) are MIC values, retold here.

One experiment relates to C. auris 8971. In words: Candida panel MIC, serial dilution in 96-well plates. Format: cell-based, Candida auris. To be noted: Candidozyma auris, 8971; Table 4, extended panel; 24 hours, ≥50% inhibition; read-out: MIC C. auris 8971. Put shortly: (§1)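 MIC = lowest concentration inhibiting growth ≥50% relative to drug-free control, read by OD530 nm after 24 h at 37° C. Medium: RPMI 1640/MOPS/2% glucose, pH 7.0. Inoculum 0.5-5×10^5/mL.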

The next experiment deals with C. auris 8984. The experiment is described as above. To be noted: Candidozyma auris, 8984; Table 4, extended panel; 24 hours, ≥50% inhibition; read-out: MIC C. auris 8984. Format: cell-based, Candida auris. Put shortly:
as §1

The test system of the next experiment is C. auris 8977. The experiment is described as above. Format: cell-based, Candida auris. The conditions noted are these: Candidozyma auris, 8977; Table 4, extended panel; 24 hours, ≥50% inhibition; read-out: MIC C. auris 8977. In a few lines: as §1
For another experiment, the system named is Candida auris TDG2512. The description is as above. The conditions noted are these: Candidozyma auris, TDG2512; Table 4, extended panel; 24 hours, ≥50% inhibition; read-out: MIC Candida auris TDG2512. In kind it is cell-based. In a few lines: (§2)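 Overnight starter cultures were diluted to OD600 0.01 and added to serially diluted compound (128 to 0.25 μg/mL) in MOPS-buffered RPMI with 2% glucose, pH 7.0, giving 0.5-5×10^5 cells/mL. After 24 h at 37 °C, OD530 was measured and the ≥50% inhibition endpoint taken as MIC.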

The test system of a further experiment is C. tropicalis NCPF8760. The experiment is described as above. In kind it is cell-based. The conditions noted are these: NCPF8760, Table 4, common panel, 24 hours, ≥50% inhibition, read-out: MIC C. tropicalis NCPF8760. In a few lines:
as §2

In another experiment the test system is Candida auris TDG1102. Described as above. Format: cell-based. To be noted: Candidozyma auris, TDG1102; Table 4, extended panel; 24 hours, ≥50% inhibition; read-out: MIC Candida auris TDG1102. In a few lines: as §2
The next experiment concerns C. auris TDG1912. The description is as above. Format: cell-based. To be noted: Candidozyma auris, TDG1912; Table 4; 24 hours, ≥50% inhibition; read-out: MIC C. auris TDG1912. Put shortly: as §2
For the next experiment, the system named is C. parapsilosis NCPF3209. In words: microbe, parasite or virus in culture. In kind it is cell-based, Candida parapsilosis. To be noted: Lodderomyces parapsilosis, NCPF3209; Table 4, common panel; 24 hours, ≥50% inhibition; read-out: MIC C. parapsilosis NCPF3209. Put shortly:
(§3)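 MIC taken as lowest concentration inhibiting growth ≥50% relative to drug-free control, from OD530 after 24 hours at 37° C. Fungi at 0.5-5×10^5/mL were exposed to serially diluted compound in RPMI 1640/MOPS/2% glucose medium adjusted to pH 7.0.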

A further experiment has as its system C. albicans NCPF3281. In words: Candida panel MIC, serial dilution in 96-well plates. To be noted: Candida albicans, NCPF3281; Table 4, common panel; 24 hours, ≥50% inhibition; read-out: MIC C. albicans NCPF3281. Format: cell-based, Candida albicans. Put shortly: as §2
The next experiment concerns C. glabrata NCPF8018. Described as above. To be noted: Nakaseomyces glabratus, NCPF8018; Table 4, common panel; 24 hours, ≥50% inhibition; read-out: MIC C. glabrata NCPF8018. In kind it is cell-based, Candida glabrata. Put shortly:
as §3

Another experiment has as its system C. krusei NCPF3876. The experiment can be described thus: microbe, parasite or virus in culture. In kind it is cell-based, Candida krusei. The conditions noted are these: Pichia kudriavzevii, NCPF3876; Table 4, common panel; 24 hours, ≥50% inhibition; read-out: MIC C. krusei NCPF3876. In a few lines: as §3
In another experiment the test system is Candida auris TDG2211. In words: microbe, parasite or virus in culture. In kind it is cell-based. The conditions noted are these: Candidozyma auris, TDG2211; Table 4, extended panel; 24 hours, ≥50% inhibition; read-out: MIC Candida auris TDG2211. In a few lines:
as §1

For the next experiment, the system named is Candida auris TDG2506. The experiment can be described thus: microbe, parasite or virus in culture. In kind it is cell-based. The conditions noted are these: Candidozyma auris, TDG2506; Table 4, extended panel; 24 hours, ≥50% inhibition; read-out: MIC Candida auris TDG2506. Put shortly:
as §1

Values after ≈ are worked out from the molar mass of the structure shown.

Regarding `OC(CN1C[C@H]2CC(Nc3ccc(N4CCCCC4)cc3)C[C@H]2C1)(Cn1cncn1)c1ccc(F)cc1F` (some centres unmarked) [Example 100], the MIC in the experiment with C. auris 8971 is 1 µg/mL (≈ 1.91 µM); with C. auris 8984, 4 µg/mL (≈ 7.65 µM); in the experiment on C. auris 8977, 2 µg/mL (≈ 3.83 µM); with Candida auris TDG2512, 0.25 µg/mL (≈ 0.478 µM); in the experiment with C. tropicalis NCPF8760 it was 8 µg/mL (≈ 15.3 µM); with Candida auris TDG1102, 16 µg/mL (≈ 30.6 µM). For the same compound, the MIC in the experiment with C. auris TDG1912 is 8 µg/mL (≈ 15.3 µM); with C. parapsilosis NCPF3209 it was at most 0.03 µg/mL; in the experiment on C. albicans NCPF3281, at most 0.03 µg/mL; in the experiment with C. glabrata NCPF8018 it was 2 µg/mL (≈ 3.83 µM); in the experiment with C. krusei NCPF3876 it was 2 µg/mL (≈ 3.83 µM); with Candida auris TDG2211, 2 µg/mL (≈ 3.83 µM). The MIC with Candida auris TDG2506 worked out at 4 µg/mL (≈ 7.65 µM).

Regarding `OC(CN1C[C@H]2CC(Nc3ccc(F)cc3)C[C@H]2C1)(Cn1cncn1)c1ccc(F)cc1F` (some centres unmarked) [Example 101], the MIC in the experiment on C. auris 8971 was found to be 0.25 µg/mL (≈ 0.546 µM); in the experiment on C. auris 8984, 4 µg/mL (≈ 8.74 µM); with C. auris 8977, 0.25 µg/mL (≈ 0.546 µM); in the experiment on Candida auris TDG2512 it was 0.125 µg/mL (≈ 0.273 µM); with C. tropicalis NCPF8760, 4 µg/mL (≈ 8.74 µM); in the experiment on Candida auris TDG1102, 2 µg/mL (≈ 4.37 µM). Besides, the MIC is 1 µg/mL (≈ 2.19 µM) in the experiment with C. auris TDG1912; at most 0.03 µg/mL in the experiment on C. parapsilosis NCPF3209; at most 0.03 µg/mL in the experiment on C. albicans NCPF3281; 0.5 µg/mL (≈ 1.09 µM) in the experiment with C. glabrata NCPF8018; 1 µg/mL (≈ 2.19 µM) in the experiment on C. krusei NCPF3876; 0.125 to 2 µg/mL (≈ 0.273 to 4.37 µM) with Candida auris TDG2211. For the same compound, the MIC with Candida auris TDG2506 was 4 µg/mL (≈ 8.74 µM).
